EC50, Activity and Ratio data for 15 compounds are collected here from ChEMBL document CHEMBL1157734, “Design and synthesis of novel bis-oximinoalkanoic acids as potent PPAR alpha agonists” (Bioorg Med Chem Lett, 2010).

Calls of active or inactive are those of the source. The calls are words filed in the database; no cut-off is given here.

Assay [1] addresses T1, Peroxisome proliferator-activated receptor alpha (Homo sapiens, UniProt Q07869).
T1 sequence (Q07869 whole entry): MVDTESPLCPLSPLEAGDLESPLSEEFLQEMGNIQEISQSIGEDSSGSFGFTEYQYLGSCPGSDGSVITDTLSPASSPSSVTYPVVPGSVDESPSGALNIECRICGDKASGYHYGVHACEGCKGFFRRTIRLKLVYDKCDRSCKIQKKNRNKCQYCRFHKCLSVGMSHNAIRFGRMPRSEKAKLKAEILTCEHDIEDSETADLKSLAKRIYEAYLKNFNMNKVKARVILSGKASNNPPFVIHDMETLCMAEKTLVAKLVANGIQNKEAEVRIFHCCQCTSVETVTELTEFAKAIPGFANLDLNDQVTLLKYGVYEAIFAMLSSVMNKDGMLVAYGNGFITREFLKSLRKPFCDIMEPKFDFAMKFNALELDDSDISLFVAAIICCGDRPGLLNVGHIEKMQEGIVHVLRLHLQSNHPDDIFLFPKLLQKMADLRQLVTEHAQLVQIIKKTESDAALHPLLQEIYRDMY
The experiment in a line: Agonist activity at human full length PPARalpha expressed in human HepG2 cells co-transfected with PPRE3-TK-luc assessed as […] by firefly luciferase assay. The format is functional, cell-based.

The target of assay [2] is T2, Peroxisome proliferator-activated receptor gamma (Homo sapiens, UniProt P37231).
T2 sequence (P37231 whole entry): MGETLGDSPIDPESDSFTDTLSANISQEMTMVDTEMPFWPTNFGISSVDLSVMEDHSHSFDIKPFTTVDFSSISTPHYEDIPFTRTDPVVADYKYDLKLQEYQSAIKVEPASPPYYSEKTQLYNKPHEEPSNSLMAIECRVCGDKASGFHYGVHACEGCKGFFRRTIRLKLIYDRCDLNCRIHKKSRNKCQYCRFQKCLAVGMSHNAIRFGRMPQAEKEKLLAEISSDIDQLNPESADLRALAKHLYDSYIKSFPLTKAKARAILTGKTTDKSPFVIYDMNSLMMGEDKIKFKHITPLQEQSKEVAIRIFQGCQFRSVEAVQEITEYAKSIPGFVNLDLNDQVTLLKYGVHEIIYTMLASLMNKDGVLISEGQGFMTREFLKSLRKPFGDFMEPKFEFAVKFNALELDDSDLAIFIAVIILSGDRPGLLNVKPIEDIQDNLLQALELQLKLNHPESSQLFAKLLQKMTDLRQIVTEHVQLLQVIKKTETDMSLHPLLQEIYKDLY
The experiment in a line: Agonist activity at human full length PPARgamma expressed in human HepG2 cells co-transfected with PPRE3-TK-luc assessed as […] by firefly luciferase assay. It is filed as functional, cell-based.

The target of assay [3] is T3, Peroxisome proliferator-activated receptor alpha (Homo sapiens) (UniProt Q07869).
T3 sequence (whole entry): T1 sequence (Q07869 whole entry)
Briefly: Agonist activity at human full length PPARalpha expressed in human HepG2 cells co-transfected with PPRE3-TK-luc assessed as […] by firefly luciferase assay relative to WY-14643. The format is functional, cell-based. The arrangement: concentration or dose not given beside the values.

The target of assay [4] is T4, Peroxisome proliferator-activated receptor delta (Homo sapiens) (UniProt Q03181).
T4 sequence (whole entry): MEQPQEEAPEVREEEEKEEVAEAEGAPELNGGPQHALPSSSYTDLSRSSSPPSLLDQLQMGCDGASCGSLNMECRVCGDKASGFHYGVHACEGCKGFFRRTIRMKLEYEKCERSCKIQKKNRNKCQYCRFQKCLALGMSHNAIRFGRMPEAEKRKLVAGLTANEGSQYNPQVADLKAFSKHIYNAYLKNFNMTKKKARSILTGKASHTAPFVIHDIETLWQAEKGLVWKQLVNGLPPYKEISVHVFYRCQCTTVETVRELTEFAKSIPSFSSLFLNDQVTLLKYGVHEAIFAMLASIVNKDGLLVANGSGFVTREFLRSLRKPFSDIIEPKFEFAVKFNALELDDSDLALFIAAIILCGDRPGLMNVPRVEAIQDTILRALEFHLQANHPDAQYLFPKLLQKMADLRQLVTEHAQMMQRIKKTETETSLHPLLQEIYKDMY
The experiment in a line: Agonist activity at human full length PPARdelta expressed in human HepG2 cells co-transfected with PPRE3-TK-luc assessed as […] at 1 uM by firefly luciferase assay. The format is functional, cell-based.

The test system of the next assay is Mus musculus. The experiment in a line: Reduction in serum triglyceride level in Swiss albino mouse at 10 mg/kg/day for 6 days relative to control. It is filed as functional. On the set-up: scale not given: the % may be the effect or the level left.
The species entered for the next assay is Homo sapiens. The experiment in a line: Selectivity for human full length PPARalpha over human full length PPARgamma.

With `C/C(=N\OCCCCO/N=C(/CCC(=O)O)c1ccccc1)c1ccc(C(F)(F)F)cc1`, the figures for the EC50 in assay [1] and in assay [2] (read-out: EC50) were 400 nM and 1400 nM, respectively. Besides, the Activity is 79% in assay [3] and 0.6% with Mus musculus. Also, the outcome in assay [4] was inactive.
Take `C/C(=N\OCCCCO/N=C(/CCC(=O)O)c1ccccc1)c1ccc2c(c1)CCCC2`: the figures for the concentration giving a half-maximal response (EC50) in assay [1] and in assay [2] (read-out: EC50) were 3 nM and 200 nM, respectively. The Activity was found to be 86% in assay [3] and 36% with Mus musculus. Also, the outcome in assay [4] was inactive.
Take `C/C(=N\OCCCCO/N=C(/CCC(=O)O)c1ccccc1)c1ccccc1`: the EC50 (commonly the concentration that produces a half-maximal response) was 2300 nM in assay [1] and “Not Active” in assay [2] (hepg2). In addition, the Activity in assay [3] stood at 46%. In assay [4], the outcome was inactive.
`C/C(=N\OCCCCO/N=C(/CCC(=O)O)c1ccccc1)c1ccc(F)cc1`: the concentration giving a half-maximal response (EC50) in assay [1] stood at 50 nM; in assay [2] (read-out: EC50), 1400 nM. Moreover, the figures for the Activity (in assay [3]; in the assay on Mus musculus) were 101% and 18%, respectively. Besides, in assay [4], the result was inactive.
The corresponding values for `COc1cc(/C(C)=N/OCCCCO/N=C(/CCC(=O)O)c2ccccc2)ccc1C` are 5 nM, 1600 nM, 257%, 36% and “inactive”.
`Cc1oc(-c2ccccc2)nc1COc1ccc(CO/N=C(\CCC(=O)O)c2ccccc2)cc1` [IMIGLITAZAR]: the EC50 in assay [1] amounted to 5 nM. The Activity in assay [3] worked out at 116%; in the assay on Mus musculus it was 37%. Further, the result in assay [4] was inactive.
With `COc1cc(/C(C)=N/OCCCCO/N=C(/CCC(=O)O)c2ccccc2)ccc1F`, the EC50 was determined as 400 nM in assay [1] and 700 nM in assay [2] (read-out: EC50). The Activity is 122% in assay [3] and 19% with Mus musculus. Moreover, the result in assay [4] was inactive.
Take `C/C(=N\OCCCCO/N=C(/CCC(=O)O)c1ccccc1)c1ccc(S(C)(=O)=O)cc1`: the figures for the 50% effective concentration (EC50) in assay [1] and in assay [2] (read-out: EC50) were 2400 nM and 1900 nM, respectively. For the same compound, the Activity turned out to be 41% in assay [3] and 14% in the assay with Mus musculus. For the same compound, the result in assay [4] was inactive.
As to `C/C(=N\OCCCCO/N=C(/CCC(=O)O)c1ccccc1)c1ccc2ccccc2c1`, the half-maximal effective concentration (EC50) was found to be 30 nM in assay [1] and 200 nM in assay [2] (read-out: EC50). Moreover, the values for the Activity (in assay [3]; with Mus musculus) were 61% and 25%, respectively. Further, the outcome in assay [4] was inactive. Further, the Ratio in the assay listed under Homo sapiens was 6.
With `COc1ccc(/C(C)=N/OCCCCO/N=C(/CCC(=O)O)c2ccccc2)cc1OC`, the EC50 in assay [1] came out at 100 nM; in assay [2] (read-out: EC50) it was 800 nM. The values for the Activity (in assay [3]; in the assay with Mus musculus) were 136% and 30%, respectively. Moreover, in assay [4], the result was inactive.
The corresponding values for `C/C(=N\OCCCCO/N=C(/CCC(=O)O)c1ccccc1)c1cccc(-c2ccccc2)c1` are 20 nM, 100 nM, 83%, 23% and “inactive”.
Regarding `C/C(=N\OCCCCO/N=C(/CCC(=O)O)c1ccccc1)c1ccc(C)c(C)c1`, the EC50 worked out at 2 nM in assay [1] and 1000 nM in assay [2] (read-out: EC50). The Activity in assay [3] turned out to be 89%; in the assay on Mus musculus it was 12%. Moreover, the outcome in assay [4] was inactive. Moreover, the Ratio in the assay filed under Homo sapiens is 320.
With `COc1ccc(/C(C)=N/OCCCCO/N=C(/CCC(=O)O)c2ccccc2)cc1`, the 50% effective concentration (EC50) was 10 nM in assay [1] and 1100 nM in assay [2] (read-out: EC50). The Activity in assay [3] came to 102%; with Mus musculus it was 35%. For the same compound, the outcome in assay [4] was inactive. In the assay filed under Homo sapiens, the Ratio stood at 110.
Turning to `C/C(=N\OCCCCO/N=C(/CCC(=O)O)c1ccccc1)c1ccc(C)cc1`, the concentration giving a half-maximal response (EC50) was determined as 50 nM in assay [1] and 2100 nM in assay [2] (read-out: EC50). The results for the Activity (in assay [3]; in the assay on Mus musculus) were 78% and 13%, respectively. In addition, in assay [4], the result was inactive.
For `CCCCc1cccc(/C(C)=N/OCCCCO/N=C(/CCC(=O)O)c2ccccc2)c1`, the concentration for a half-maximal effect (EC50) in assay [1] was 500 nM; in assay [2] (read-out: EC50), 200 nM. The Activity came out at 85% in assay [3] and 31% in the assay with Mus musculus. The outcome in assay [4] was inactive.
